In patent US20050182242A1, “Global analysis of protein activities using proteome chips” (priority 2001, published 2005):

Columns and labels:
[1] = tested on: six different liposomes; test: Reverse membrane assay: proteins spotted on nitrocellulose probed with six liposomes; type: binding
Description: B. A reverse assay was carried out to test for protein-lipid interactions. The proteins were prepared and spotted onto nitrocellulose filters in a dilution series and probed with the six different liposomes. As a control, the six liposomes were also added to the BSA-blocked membrane. After extensive washing, the bound liposomes were detected using an HRP-conjugated streptavidin and an ECL kit.
C. Linear correlation between the binding signals and the amounts of Rim15p in a membrane assay. When liposome-binding signals of Rim15p from the membrane assay (FIG. 4B) were plotted against the concentration gradient of the spotted Rim15p, the binding signals of PI(4)P, PI(3,4)P2, PI(3)P, and PI(4,5)P2 correlated linearly with the amounts of Rim15p.
Therefore, six proteins, i.e., Rim15p, Eno2p, Hxk1p, Sps1p, Yg1059wp, and Gcn2p, were further tested for phosphoinositol binding using two types of standard assays (Williamson, 2000, Nat. Struct Biol. 7(10):834-7). For Rim15p, Eno2p, and Hxk1p, PI(4,5)P2 liposomes were first adhered to a nitrocellulose membrane, which was then blocked by BSA; different amounts of the GST fusion proteins and a GST control were used to probe the membrane, and bound proteins were detected using anti-GST antibodies. […] We also carried out the reverse assay for four GST fusion proteins, Rim15p, Sps1p, Yg1059wp, and Gcn2p (Guerra et al., 2000, Biosci. Rep. 20: 41). Different amounts of these purified proteins were spotted onto nitrocellulose filters and probed with the six different liposomes (FIG. 5B). The bound liposomes were detected using a horseradish peroxidase (“HRP”)-conjugated streptavidin.

[2] = tested on: phospholipids (phosphatidylinositols vs phosphatidylcholine); test: Proteome chip lipid-binding screen, overall analysis of six liposomes (PI/PC specificity); conditions: phospholipid liposome probes
Source text: FIGS. 4A-4D. Analysis of the phosphatidylinositol-binding proteins. To determine the phosphatidylinositol (“PI”)-binding specificity of 150 positive proteins, their binding signals were normalized against the corresponding binding signals of phosphatidylcholine (“PC”). Based on the ratios (“PI/PC”), the proteins were grouped into four categories: (A) 30 strong and specific, (B) 43 strong and nonspecific, (C) 19 weak and specific, and (D) 58 weak and nonspecific phosphatidylinositol-binding proteins. The intensity represents the PI/PC signal ratio as shown by the scale in the figure. The column, labeled “10^n” to the right of the PI/PC binding ratios indicates the maximum binding signal intensity (open boxes) and its confidence interval (solid horizontal lines); the numbers indicate the log of the values. Boxes in the three columns to the right of the confidence interval column indicate membrane-associated proteins (“Membrane”), kinases (“Kinase”), and uncharacterized ORFs (“Unknown”), respectively.
To identify PI-binding proteins in yeast, liposomes were used as probes because the liposome provides the most relevant physiological condition to assay the interactors. Six types of liposomes were used. […] The biotinylated lipid serves as a label that can be detected by Cy3-streptavidin (21). […]

## RIM15: yeast protein kinase, regulator of glucose metabolism, GST-HisX6 fusion
[1]; HRP-conjugated streptavidin
  liposome binding in reverse membrane assay: bound strongest to PI(3)P and PI(4)P and PI(3,4)P2
[1]; membrane assay, signal vs amount of protein
  affinity of PI(4)P relative to control PC: at least three-fold higher
[2]
  identified as lipid-binding interactor: identified
